Experimental data reported in patent publication US8735322B2, “Herbicides” (Syngenta Limited, priority 2008, dated 2014).

Columns and labels:
Setaria faberi (SETFA) [1] = experiment: Example A post-emergence herbicidal activity, glasshouse pot test; type: in vivo; conditions: 360 h, evaluated 15 days after spraying, read-out: herbicidal damage SETFA (100=total damage to plant; 0=no damage to plant); for pest or weed control at 500 g/ha: rate 500 g/ha
Protocol: (§1) Seeds of a variety of test species were sown in standard soil in pots. After cultivation for one day (pre-emergence) or after 10 days cultivation (post-emergence) under controlled conditions in a glasshouse, the plants were sprayed with an aqueous spray solution derived from the formulation of the technical active ingredient in 0.6 ml acetone and 45 ml formulation solution containing 10.6% Emulsogen EL (Registry number 61791-12-6), 42.2% N-methylpyrrolidone, 42.2% dipropylene glycol monomethyl ether (Registry number 34590-94-8) and 0.2% X-77 (Registry number 11097-66-8). The test plants were then grown in a greenhouse under optimum conditions until, 15 days later for post-emergence and 20 days for pre-emergence, the test was evaluated (100=total damage to plant; 0=no damage to plant). Alopecurus myosuroides (ALOMY), Avena fatua (AVEFA), Lolium perenne (LOLPE), Setaria faberi (SETFA), Digitaria sanguinalis (DIGSA), Echinochloa crus-galli (ECHCG) Post Emergency Activity

[2] = system: Alopecurus myosuroides (ALOMY); experiment: as above; type: in vivo; conditions: 360 h, evaluated 15 days after spraying, read-out: herbicidal damage ALOMY (100=total damage to plant; 0=no damage to plant); for pest or weed control at 500 g/ha: rate 500 g/ha
Protocol: as §1

Avena fatua (AVEFA) [3] = experiment: as above; type: in vivo; conditions: 360 h, evaluated 15 days after spraying, read-out: herbicidal damage AVEFA (100=total damage to plant; 0=no damage to plant); for pest or weed control at 500 g/ha: rate 500 g/ha
Protocol: as §1

[4] = system: Echinochloa crus-galli (ECHCG); experiment: as above; type: in vivo; conditions: 360 h, evaluated 15 days after spraying, read-out: herbicidal damage ECHCG (100=total damage to plant; 0=no damage to plant); for pest or weed control at 500 g/ha: rate 500 g/ha
Protocol: as §1

[5] = system: Digitaria sanguinalis (DIGSA); experiment: as above; type: in vivo; conditions: 360 h, evaluated 15 days after spraying, read-out: herbicidal damage DIGSA (100=total damage to plant; 0=no damage to plant); for pest or weed control at 500 g/ha: rate 500 g/ha
Protocol: as §1

Lolium perenne (LOLPE) [6] = experiment: as above; type: in vivo; conditions: 360 h, evaluated 15 days after spraying, read-out: herbicidal damage LOLPE (100=total damage to plant; 0=no damage to plant); for pest or weed control at 500 g/ha: rate 500 g/ha
Protocol: as §1

Setaria faberi (SETFA) [7] = experiment: Example A pre-emergence herbicidal activity, glasshouse pot test; type: in vivo; conditions: 480 h, rate 500 g/ha, evaluated 20 days later, 100=total damage to plant, 0=no damage to plant
Protocol: as §1, with “Pre-Emergence” for “Post Emergency”

[8] = system: Alopecurus myosuroides (ALOMY); experiment: as above; type: in vivo; conditions: 480 h, rate 500 g/ha, evaluated 20 days later, 100=total damage to plant, 0=no damage to plant
Protocol: as §1, with “Pre-Emergence” for “Post Emergency”

Avena fatua (AVEFA) [9] = experiment: as above; type: in vivo; conditions: 480 h, rate 500 g/ha, evaluated 20 days later, 100=total damage to plant, 0=no damage to plant
Protocol: as §1, with “Pre-Emergence” for “Post Emergency”

[10] = system: Echinochloa crus-galli (ECHCG); experiment: as above; type: in vivo; conditions: 480 h, rate 500 g/ha, evaluated 20 days later, 100=total damage to plant, 0=no damage to plant
Protocol: as §1, with “Pre-Emergence” for “Post Emergency”

[11] = system: Digitaria sanguinalis (DIGSA); experiment: as above; type: in vivo; conditions: 480 h, rate 500 g/ha, evaluated 20 days later, 100=total damage to plant, 0=no damage to plant
Protocol: as §1, with “Pre-Emergence” for “Post Emergency”

Lolium perenne (LOLPE) [12] = experiment: as above; type: in vivo; conditions: 480 h, rate 500 g/ha, evaluated 20 days later, 100=total damage to plant, 0=no damage to plant
Protocol: as §1, with “Pre-Emergence” for “Post Emergency”

Setaria faberi (SETFA) [13] = experiment: Example B post-emergence herbicidal activity, glasshouse pot test; type: in vivo; conditions: 312 h, rate 1000 g/ha, evaluated after 13 days, read-out: herbicidal damage SETFA (100=total damage to plant; 0=no damage to plant)
Protocol: (§2) Seeds of a variety of test species were sown in standard soil in pots. After cultivation for one day (pre-emergence) or after 8 days cultivation (post-emergence) under controlled conditions in a glasshouse (at 24/16° C., day/night; 14 hours light; 65% humidity), the plants were sprayed with an aqueous spray solution derived from the formulation of the technical active ingredient in acetone/water (50:50) solution containing 0.5% Tween 20 (polyoxyethelyene sorbitan monolaurate, CAS RN 9005-64-5). The test plants were then grown in a glasshouse under controlled conditions in a glasshouse (at 24/16° C., day/night; 14 hours light; 65% humidity) and watered twice daily. After 13 days for pre and post-emergence, the test was evaluated (100=total damage to plant; 0=no damage to plant). Alopecurus myosuroides (ALOMY), Avena fatua (AVEFA), Setaria faberi (SETFA), Echinochloa crus-galli (ECHCG), Solanum nigrum (SOLNI) and Amaranthus retroflexus (AMARE) Post-Emergence Activity

[14] = system: Amaranthus retroflexus (AMARE); experiment: as above; type: in vivo; conditions: 312 h, rate 1000 g/ha, evaluated after 13 days, read-out: herbicidal damage AMARE (100=total damage to plant; 0=no damage to plant)
Protocol: as §2

[15] = system: Alopecurus myosuroides (ALOMY); experiment: as above; type: in vivo; conditions: 312 h, rate 1000 g/ha, evaluated after 13 days, read-out: herbicidal damage ALOMY (100=total damage to plant; 0=no damage to plant)
Protocol: as §2

Avena fatua (AVEFA) [16] = experiment: as above; type: in vivo; conditions: 312 h, rate 1000 g/ha, evaluated after 13 days, read-out: herbicidal damage AVEFA (100=total damage to plant; 0=no damage to plant)
Protocol: as §2

[17] = system: Echinochloa crus-galli (ECHCG); experiment: as above; type: in vivo; conditions: 312 h, rate 1000 g/ha, evaluated after 13 days, read-out: herbicidal damage ECHCG (100=total damage to plant; 0=no damage to plant)
Protocol: as §2

Solanum nigrum (SOLNI) [18] = experiment: as above; type: in vivo; conditions: 312 h, rate 1000 g/ha, evaluated after 13 days, read-out: herbicidal damage SOLNI (100=total damage to plant; 0=no damage to plant)
Protocol: as §2

Setaria faberi (SETFA) [19] = experiment: Example B pre-emergence herbicidal activity, glasshouse pot test; type: in vivo; conditions: 312 h, rate 1000 g/ha, evaluated after 13 days, read-out: herbicidal damage SETFA (100=total damage to plant; 0=no damage to plant)
Protocol: as §2, with “Pre-Emergence” for “Post-Emergence”

[20] = system: Amaranthus retroflexus (AMARE); experiment: as above; type: in vivo; conditions: 312 h, rate 1000 g/ha, evaluated after 13 days, read-out: herbicidal damage AMARE (100=total damage to plant; 0=no damage to plant)
Protocol: as §2, with “Pre-Emergence” for “Post-Emergence”

[21] = system: Alopecurus myosuroides (ALOMY); experiment: as above; type: in vivo; conditions: 312 h, rate 1000 g/ha, evaluated after 13 days, read-out: herbicidal damage ALOMY (100=total damage to plant; 0=no damage to plant)
Protocol: as §2, with “Pre-Emergence” for “Post-Emergence”

Avena fatua (AVEFA) [22] = experiment: as above; type: in vivo; conditions: 312 h, rate 1000 g/ha, evaluated after 13 days, read-out: herbicidal damage AVEFA (100=total damage to plant; 0=no damage to plant)
Protocol: as §2, with “Pre-Emergence” for “Post-Emergence”

[23] = system: Echinochloa crus-galli (ECHCG); experiment: as above; type: in vivo; conditions: 312 h, rate 1000 g/ha, evaluated after 13 days, read-out: herbicidal damage ECHCG (100=total damage to plant; 0=no damage to plant)
Protocol: as §2, with “Pre-Emergence” for “Post-Emergence”

Solanum nigrum (SOLNI) [24] = experiment: as above; type: in vivo; conditions: 312 h, rate 1000 g/ha, evaluated after 13 days, read-out: herbicidal damage SOLNI (100=total damage to plant; 0=no damage to plant)
Protocol: as §2, with “Pre-Emergence” for “Post-Emergence”

Structure (SMILES)	melting point	pest or weed control at 500 g/ha (Setaria faberi (SETFA) [1])	pest or weed control at 500 g/ha [2]	pest or weed control at 500 g/ha (Avena fatua (AVEFA) [3])	pest or weed control at 500 g/ha [4]	pest or weed control at 500 g/ha [5]	pest or weed control at 500 g/ha (Lolium perenne (LOLPE) [6])	pest or weed control at 500 g/ha (Setaria faberi (SETFA) [7])	pest or weed control at 500 g/ha [8]	pest or weed control at 500 g/ha (Avena fatua (AVEFA) [9])	pest or weed control at 500 g/ha [10]	pest or weed control at 500 g/ha [11]	pest or weed control at 500 g/ha (Lolium perenne (LOLPE) [12])	also measured
Cc1cc(C)c(C2=C(O)CC(CC3CCOC3)CC2=O)c(C)c1 (centres unmarked) [Compound A-1, 2-(2,4,6-trimethylphenyl)-5-(tetrahydrofuran-3-ylmethyl)cyclohexane-1,3-dione]	62 to 64 °C	100%	70%	80%	90%	100%	70%	90%	70%	40%	50%	100%	80%	
CCc1ccccc1C1=C(O)CC(CC2CCOCC2)CC1=O (centres unmarked) [Compound A-31]								100%	60%	50%	70%	100%	40%	pest or weed control at 1000 g/ha (Setaria faberi (SETFA) [13]): 100%; pest or weed control at 1000 g/ha [14]: 0%; pest or weed control at 1000 g/ha [15]: 100%; pest or weed control at 1000 g/ha (Avena fatua (AVEFA) [16]): 90%; pest or weed control at 1000 g/ha [17]: 100%; pest or weed control at 1000 g/ha (Solanum nigrum (SOLNI) [18]): 0%; pest or weed control at 125 g/ha (Setaria faberi (SETFA) [1]; rate 125 g/ha): 40%; pest or weed control at 125 g/ha ([2]; rate 125 g/ha): 60%; pest or weed control at 125 g/ha (Avena fatua (AVEFA) [3]; rate 125 g/ha): 60%; pest or weed control at 125 g/ha ([4]; rate 125 g/ha): 50%; pest or weed control at 125 g/ha ([5]; rate 125 g/ha): 30%; pest or weed control at 125 g/ha (Lolium perenne (LOLPE) [6]; rate 125 g/ha): 60%; pest or weed control at 1000 g/ha (Setaria faberi (SETFA) [19]): 100%; pest or weed control at 1000 g/ha [20]: 0%; pest or weed control at 1000 g/ha [21]: 100%; pest or weed control at 1000 g/ha (Avena fatua (AVEFA) [22]): 40%; pest or weed control at 1000 g/ha [23]: 100%; pest or weed control at 1000 g/ha (Solanum nigrum (SOLNI) [24]): 0%
Cc1cc(C)c(C2=C(OC(=O)C(C)(C)C)CC(CC3CCOC3)CC2=O)c(C)c1 (centres unmarked) [Compound B-1, 2,2-dimethylpropionic acid 3-oxo-5-(tetrahydrofuran-3-ylmethyl)-2-(2,4,6-trimethylphenyl)cyclohex-1-enyl Ester]	108 to 110 °C	80%	50%	0%	70%	90%	60%	80%	90%	50%	100%	100%	90%	
